Source: ChEMBL document CHEMBL1201862, “PubChem BioAssay data set” (2004)
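96-well plates; 48 h exposure; 5 concentrations. Endpoints by linear interpolation between flanking doses. Not reached: highest tested concentration assigned. Abbreviation: GI50, concentration required for 50% inhibition of growth.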 Active and inactive are the calls of the source. Cut-off read from the data, not from the text of the source: active = GI50 up to about 1.1 µM and inactive = higher.

Tests used:
Test in all cases: DTP human tumour cell line panel, 48 h
T47D = test system: T47D
NCI-H23 = test system: NCI-H23
OVCAR-4 = test system: OVCAR-4
IGROV-1 = test system: IGROV-1
NCI-H460 = test system: NCI-H460
SK-MEL-2 = test system: SK-MEL-2
SR = test system: SR
K562 = test system: K562
EKVX = test system: EKVX
CCRF-CEM = test system: CCRF-CEM
SW-620 = test system: SW-620
HOP-92 = test system: HOP-92
LOX IMVI = test system: LOX IMVI
SK-OV-3 = test system: SK-OV-3
SK-MEL-28 = test system: SK-MEL-28
A498 = test system: A498
HCT-116 = test system: HCT-116
NCI-H522 = test system: NCI-H522
Hs-578T = test system: Hs-578T
RPMI-8226 = test system: RPMI-8226

SMILES	GI50 (T47D)	GI50 (NCI-H23)	GI50 (OVCAR-4)	GI50 (IGROV-1)	GI50 (NCI-H460)	GI50 (SK-MEL-2)	GI50 (SR)	GI50 (K562)	GI50 (EKVX)	GI50 (CCRF-CEM)	GI50 (SW-620)	GI50 (HOP-92)	GI50 (LOX IMVI)	GI50 (SK-OV-3)	GI50 (SK-MEL-28)	GI50 (A498)	GI50 (HCT-116)	GI50 (NCI-H522)	GI50 (Hs-578T)	GI50 (RPMI-8226)
COc1cc(C2c3cc4c(cc3OC3(OC)COC(=O)C23)OCO4)cc(OC)c1OC(C)=O (stereo not drawn)	> 100 µM (inactive)	3.27 µM (inactive)	> 57.8 µM (inactive)	2.21 µM (inactive)	0.705 µM (active)	1.84 µM (inactive)	2.53 µM (inactive)	1.04 µM (active)	> 35.8 µM (inactive)	2.24 µM (inactive)	0.552 µM (active)	51.2 µM (inactive)	0.656 µM (active)	1.66 µM (inactive)	2.27 µM (inactive)	3.27 µM (inactive)	0.785 µM (active)	0.263 µM (active)	0.54 µM (active)	1.81 µM (inactive)
O=C1C=CC(=O)c2c1ccc1c3ccccc3n(Cc3cccc([N+](=O)[O-])c3)c21	26.4 µM (inactive)	21.7 µM (inactive)	23.8 µM (inactive)	22.9 µM (inactive)	> 95.9 µM (inactive)	39.8 µM (inactive)	12.8 µM (inactive)	6.92 µM (inactive)	> 100 µM (inactive)	8.36 µM (inactive)	11.5 µM (inactive)	20.1 µM (inactive)	33.9 µM (inactive)	> 100 µM (inactive)	> 43.6 µM (inactive)	58.3 µM (inactive)	24.5 µM (inactive)	18.8 µM (inactive)	> 71.9 µM (inactive)	17.8 µM (inactive)
O=C1C=CC(=O)c2cc(Sc3ccccc3)c(=O)ccc21	3.41 µM (inactive)	19.2 µM (inactive)	11 µM (inactive)	18.5 µM (inactive)	22 µM (inactive)	13.6 µM (inactive)	1.58 µM (inactive)	2.49 µM (inactive)	18.3 µM (inactive)	1.76 µM (inactive)	3.83 µM (inactive)	10.4 µM (inactive)	13.1 µM (inactive)	26 µM (inactive)	18 µM (inactive)	16.2 µM (inactive)	18 µM (inactive)	2.32 µM (inactive)	27.4 µM (inactive)	4.46 µM (inactive)
C=C1C(C)C2C(Cc3ccccc3)NC(=O)C23C(OC(C)=O)/C=C/C(C)(O)CC(C)C/C=C/C3C1O (stereo not drawn)	> 100 µM (inactive)	13.8 µM (inactive)	0.904 µM (active)	1.32 µM (inactive)	0.29 µM (active)	8.97 µM (inactive)	27.5 µM (inactive)	23.3 µM (inactive)	1.72 µM (inactive)	1.03 µM (active)	90.6 µM (inactive)	0.154 µM (active)	0.0593 µM (active)	0.242 µM (active)	3.94 µM (inactive)	0.117 µM (active)	4.53 µM (inactive)	2.26 µM (inactive)	0.0129 µM (active)	9.42 µM (inactive)
CC(=O)c1cc2c(Br)cccc2oc1=O	> 100 µM (inactive)	> 100 µM (inactive)	> 100 µM (inactive)	> 100 µM (inactive)	> 100 µM (inactive)	> 100 µM (inactive)	46.8 µM (inactive)	99.1 µM (inactive)	> 100 µM (inactive)	> 100 µM (inactive)	> 100 µM (inactive)	> 100 µM (inactive)	> 100 µM (inactive)	–	> 100 µM (inactive)	> 100 µM (inactive)	66.7 µM (inactive)	> 100 µM (inactive)	> 100 µM (inactive)	> 100 µM (inactive)
C=CC1ON(Cc2ccccc2)CCc2cc(OC)c(OC)cc21 (stereo not drawn)	27.7 µM (inactive)	53.3 µM (inactive)	–	78 µM (inactive)	57 µM (inactive)	–	25.7 µM (inactive)	42 µM (inactive)	63.4 µM (inactive)	45.7 µM (inactive)	44.9 µM (inactive)	46.5 µM (inactive)	43.3 µM (inactive)	56.5 µM (inactive)	36.9 µM (inactive)	15.2 µM (inactive)	45.2 µM (inactive)	41.5 µM (inactive)	> 100 µM (inactive)	30.3 µM (inactive)
C=C(C)[C@@]1(O[Si](C)(C)C)CCCC[C@@H]1CC(Sc1ccccc1)Sc1ccccc1	4.26 µM (inactive)	13.4 µM (inactive)	12.6 µM (inactive)	15.6 µM (inactive)	13.2 µM (inactive)	15 µM (inactive)	11.1 µM (inactive)	12.7 µM (inactive)	17.6 µM (inactive)	14.4 µM (inactive)	14.1 µM (inactive)	12.7 µM (inactive)	17.9 µM (inactive)	20 µM (inactive)	18.3 µM (inactive)	19.9 µM (inactive)	–	7.83 µM (inactive)	13.4 µM (inactive)	16.9 µM (inactive)
COC(=O)c1ccc(Nc2nc3[nH]cnc3c(=O)[nH]2)cc1	69 µM (inactive)	> 100 µM (inactive)	> 100 µM (inactive)	> 100 µM (inactive)	> 100 µM (inactive)	> 100 µM (inactive)	65.9 µM (inactive)	–	> 100 µM (inactive)	> 100 µM (inactive)	> 100 µM (inactive)	> 100 µM (inactive)	95.5 µM (inactive)	89.3 µM (inactive)	> 100 µM (inactive)	> 100 µM (inactive)	> 100 µM (inactive)	> 100 µM (inactive)	> 100 µM (inactive)	47.5 µM (inactive)
CC1(O)CC(C(F)(F)F)(C(F)(F)F)OC1=O (stereo not drawn)	> 10 µM (inactive)	> 10 µM (inactive)	> 10 µM (inactive)	> 10 µM (inactive)	> 10 µM (inactive)	–	> 10 µM (inactive)	> 10 µM (inactive)	> 10 µM (inactive)	> 10 µM (inactive)	> 10 µM (inactive)	> 10 µM (inactive)	> 10 µM (inactive)	> 10 µM (inactive)	> 10 µM (inactive)	> 10 µM (inactive)	> 10 µM (inactive)	> 10 µM (inactive)	> 10 µM (inactive)	> 10 µM (inactive)
C=C1C(C2(C)C=CC(=O)OC3(C)COC(=O)CC32)C(OC=O)C(OC(=O)C(O)C(C)CC)C2(C)C(c3ccoc3)CC(OC(C)=O)C12O (stereo not drawn)	> 100 µM (inactive)	> 100 µM (inactive)	–	93.5 µM (inactive)	42.1 µM (inactive)	64.3 µM (inactive)	38.9 µM (inactive)	> 100 µM (inactive)	> 100 µM (inactive)	35 µM (inactive)	> 100 µM (inactive)	> 100 µM (inactive)	25.3 µM (inactive)	> 100 µM (inactive)	> 100 µM (inactive)	> 100 µM (inactive)	49 µM (inactive)	> 100 µM (inactive)	> 100 µM (inactive)	> 100 µM (inactive)
